# Structures can show the parent of a compound that is named as a salt. ± gives the standard deviation of the reports.
row,Structure (SMILES),glass transition temperature
1,*CCC1C(=O)N(CCCC)C(=O)C1* (repeat unit),67.90 °C
2,*C(=O)c1ccc2c(c1)C(=O)N(c1ccccc1C(=O)c1ccccc1N1C(=O)c3ccc(*)cc3C1=O)C2=O (repeat unit),289.00 °C
3,*c1ccc(Oc2ccc(C(=O)c3cccc(-c4cccc(C(=O)c5ccc(Oc6ccc(-c7nc(-c8cccc(-c9nc(*)c(-c%10ccccc%10)[nH]9)c8)[nH]c7-c7ccccc7)cc6)cc5)c4)c3)cc2)cc1 (repeat unit),250.00 °C
4,*O[Si](*)(CCCOCCOCCOCCOCCOCCOCCOCCOC)CCCOCCOCCOCCOCCOCCOCCOCCOC (repeat unit),-66.40 °C
5,*CC(*)(C)c1nc(N(CCOCCOCCOC)CCOCCOCCOC)nc(N(CCOCCOCCOC)c2ccccc2)n1 (repeat unit),-75.00 °C
6,*C1c2cccc3cccc(c23)C1* (repeat unit),250.00 °C
7,*C(=O)c1ccc2c(c1)C(=O)N(c1cccc(Nc3ncnc(Nc4cccc(N5C(=O)c6ccc(*)cc6C5=O)c4)n3)c1)C2=O (repeat unit),290.00 °C
8,*Oc1ccc(S(=O)(=O)c2ccc(Oc3ccc(NC(=O)c4cc(NC(=O)c5ccncc5)cc(C(=O)Nc5ccc(*)cc5)c4)cc3)cc2)cc1 (repeat unit),283.00 °C
9,*C(=O)Nc1ccc(Oc2ccc(NC(=O)c3ccc4c(c3)C(=O)N(c3ccc(Cc5ccc(N6C(=O)c7ccc(*)cc7C6=O)cc5)cc3)C4=O)cc2)cc1 (repeat unit),251.00 °C
10,*N=P(N=P(N=S(*)(=O)NCC=C)(NCC=C)NCC=C)(NCC=C)NCC=C (repeat unit),-18.00 °C
11,*Oc1ccc(C2(c3ccc(Oc4ccc(C(=O)Oc5c(C)cc(C(C)(C)c6cc(C)c(OC(=O)c7ccc(*)cc7)c(C)c6)cc5C)cc4)cc3)CCC(C(C)(C)C)CC2)cc1 (repeat unit),176.00 °C
12,*Oc1ccc(C(C)(C)c2ccc(Oc3ccc4c(=O)n5c6cc(-c7ccc8c(c7)nc7c9ccc(*)c%10cccc(c(=O)n87)c%109)ccc6nc5c5cccc3c45)cc2)cc1 (repeat unit),380.00 °C
13,*CC(=O)Nc1ccc(Oc2ccc(C(C)(C)c3ccc(Oc4ccc(NC(=O)CN5C(=O)c6ccc(C(c7ccc8c(c7)C(=O)N(*)C8=O)(C(F)(F)F)C(F)(F)F)cc6C5=O)cc4)cc3)cc2)cc1 (repeat unit),224.00 °C
14,*CC(*)OCCCC (repeat unit) [Poly(butyl vinyl ether)],-52.08 ± 1.5 °C
15,*CC(*)OC(=O)C(F)(F)F (repeat unit) [Poly(vinyl trifluoroacetate) ],46 ± 5.6 °C
16,*Oc1ccc(S(=O)(=O)c2ccc(Oc3ccc(C4(c5ccc(*)cc5)CC5CCC4C5)cc3)cc2)cc1 (repeat unit),250.00 °C
17,*O[Si](*)(C)CCCCCCCCCCCOc1ccc(C(=O)OC/C=C(\C)CCC=C(C)C)cc1 (repeat unit),25.00 °C
18,*NC1CCC(CC2CCC(NC(=O)CCCCCCCCC(*)=O)CC2)CC1 (repeat unit),144.00 °C
19,*C(=O)N1C(=O)N(C(=O)c2ccc3c(c2)C(=O)N(c2ccc(Oc4ccc(N5C(=O)c6ccc(*)cc6C5=O)cc4)cc2)C3=O)C(CC)(CC)C1=O (repeat unit),160.00 °C
20,*Nc1cc(NC(=O)CCCCC(*)=O)cc(-c2nnc(-c3ccccn3)o2)c1 (repeat unit),159.00 °C
21,*C(F)(F)C(*)(F)Cl (repeat unit) [Poly(chlorotrifluoroethylene)],69.47 ± 25 °C

row,Structure (SMILES),glass transition temperature
1,*CC(=O)Nc1ccc(Oc2cccc(NC(=O)CN3C(=O)c4ccc(C(=O)c5ccc6c(c5)C(=O)N(*)C6=O)cc4C3=O)c2)cc1 (repeat unit),226.00 °C
2,*c1ccc2c(c1)C(=O)N(c1cccc(C(=O)Nc3ccc(Oc4cccc(Oc5ccc(NC(=O)c6cccc(N7C(=O)c8ccc(C(*)(C(F)(F)F)C(F)(F)F)cc8C7=O)c6)cc5)c4)cc3)c1)C2=O (repeat unit),264.00 °C
3,*CC(*)c1ccc(C(=O)Cc2ccccc2)cc1 (repeat unit),78.00 °C
4,*CC(*)C(=O)Oc1ccc(C(=O)O)cc1 (repeat unit),125.00 °C
5,*CCCC1(C)CCN(C(=O)CC(C)C(=O)N2CCC(*)(C)CC2)CC1 (repeat unit),72.00 °C
6,*Oc1ccc(C(C)(C)c2ccc(Oc3ccc(C(=O)c4c(C(=O)c5ccc(*)cc5)c(-c5ccccc5)c(-c5ccc6ccccc6c5)c(-c5ccc6ccccc6c5)c4-c4ccccc4)cc3)cc2)cc1 (repeat unit),264.00 °C
7,*c1ccc(Oc2ccc(S(=O)(=O)c3ccc(Oc4ccc(N5C(=O)c6ccc([Si](C)(C)c7ccc8c(c7)C(=O)N(*)C8=O)cc6C5=O)cc4)cc3)cc2)cc1 (repeat unit),246.00 °C
8,*CC(*)c1cc(Br)ccc1OCC (repeat unit),80.00 °C
9,*Oc1ccc(C(=O)c2ccc(Oc3ccc(C(=O)c4c(C(=O)c5ccc(*)cc5)c(-c5ccc(F)cc5)c(-c5ccc(F)cc5)c(-c5ccc(F)cc5)c4-c4ccc(F)cc4)cc3)cc2)cc1 (repeat unit),260.00 °C
10,*C(=O)c1ccc2c(c1)C(=O)N(c1cccc(Nc3nc(Nc4cccc(N5C(=O)c6ccc(*)cc6C5=O)c4)nc(N(c4ccccc4)c4ccccc4)n3)c1)C2=O (repeat unit),290.00 °C
11,*c1ccc(OC(=O)c2cccc(C(=O)Oc3ccc(C4(*)C(=O)Nc5ccccc54)cc3)c2)cc1 (repeat unit),256.00 °C
12,*c1ccc(Oc2ccc3ccccc3c2-c2c(Oc3ccc(N4C(=O)c5ccc(NC(=O)Nc6ccc(Oc7ccccc7-c7ccccc7Oc7ccc(NC(=O)Nc8ccc9c(c8)C(=O)N(*)C9=O)cc7)cc6)cc5C4=O)cc3)ccc3ccccc23)cc1 (repeat unit),285.00 °C
13,*CC(*)c1ccc(C(=O)CCCC)cc1 (repeat unit),70.00 °C
14,*O[Si](*)(C)CCCOc1ccc(C(=O)Oc2ccc(OC)cc2)cc1 (repeat unit),37.00 °C
15,*Oc1ccc(C(C)(c2ccccc2)c2ccc(Oc3c(F)c(F)c(C(=O)c4c(F)c(F)c(*)c(F)c4F)c(F)c3F)cc2)cc1 (repeat unit),175.00 °C
16,*CC(=O)Nc1ccc(NC(=O)COc2ccc3ccccc3c2Sc2c(O*)ccc3ccccc23)cc1 (repeat unit),268.00 °C
17,*CC(*)C(=O)Oc1ccccc1C(=O)OC (repeat unit),46.00 °C
18,*/C=C/C1CC(*)C2C(=O)N(c3ccccc3)C(=O)C12 (repeat unit),220.00 °C
19,*C(=O)Oc1ccc(OC(=O)c2ccc3c(c2)C(=O)N(c2ccc(Oc4ccc(N5C(=O)c6ccc(*)cc6C5=O)cc4)cc2)C3=O)cc1 (repeat unit),270.00 °C
20,*Nc1ccc(C(c2ccc(NC(=O)c3cc(C(*)=O)cc(C(C)(C)C)c3)cc2)(P2(=O)Oc3ccccc3-c3ccccc32)P2(=O)Oc3ccccc3-c3ccccc32)cc1 (repeat unit),235.00 °C

# The remaining lines, values ahead:
row,glass transition temperature,Structure (SMILES)
1,247.00 °C,*Oc1ccc2cc(Oc3ccc(C(=O)c4ccc(*)cc4)cc3)ccc2c1 (repeat unit)
2,399.00 °C,*c1ccc(-c2ccc(N3C(=O)c4c(c(-c5ccccc5)c(-c5ccc(Oc6ccc(-c7c(-c8ccccc8)c8c(c(-c9ccccc9)c7-c7ccccc7)C(=O)N(*)C8=O)cc6)cc5)c(-c5ccccc5)c4-c4ccccc4)C3=O)cc2)cc1 (repeat unit)
3,175.00 °C,*Nc1ccc(CC(C)(C)NC(=O)c2ccc(C(*)=O)cc2)cc1 (repeat unit)
4,133.00 °C,*CC(*)(C)C(=O)OCCCCCCCCCCCCCCC(=O)NC1OC(CO)C(OC2OC(CO)C(O)C(O)C2O)C(O)C1O (repeat unit)
5,240.00 °C,*C1CCC(CC2CCC(N3C(=O)c4ccc(Oc5ccc6c(c5)C(=O)N(*)C6=O)cc4C3=O)CC2)CC1 (repeat unit)
6,10.00 °C,*CCN(*)C(=O)CCCCCCCCCCC (repeat unit)
7,275.00 ± 5.7 °C,*c1ccc2c(c1)C(=O)N(c1cccc(S(=O)(=O)c3cccc(N4C(=O)c5ccc(C(*)(C(F)(F)F)C(F)(F)F)cc5C4=O)c3)c1)C2=O (repeat unit)
8,294.50 °C,*Nc1ccc(Cc2ccc(NC(=O)c3ccc(C(*)=O)cc3)cc2)cc1 (repeat unit)
9,65.60 °C,*CCC1C(=O)N(CCCCCCCCCCCCCCCC)C(=O)C1* (repeat unit)
10,138.00 °C,*c1cccc(OCCCCCCCCOc2cccc(N3C(=O)c4ccc(-c5ccc6c(c5)C(=O)N(*)C6=O)cc4C3=O)c2)c1 (repeat unit)
11,28.00 °C,*Oc1ccc(CC(NC(=O)CCc2ccc(OC(=O)COCCOCC(*)=O)cc2)C(=O)OCCCCCC)cc1 (repeat unit)
12,72.00 °C,*CC(*)(C)C(=O)OCCCCCCCCCCOc1ccc(C(=O)Oc2ccc(C(=O)/C=C/c3c(C)c4ccccc4n3C)cc2)cc1 (repeat unit)
13,61.00 °C,*CCOC(=O)NCCCCCCNC(=O)OCCOc1ccc(C2(c3ccc(O*)cc3)c3ccccc3-c3ccccc32)cc1 (repeat unit)
14,140.00 °C,*CCOCCOc1cccc(NC(=O)c2ccc(C(=O)Nc3cccc(O*)c3)cc2)c1 (repeat unit)
15,112.00 °C,*CC(*)(C)C(=O)OCCOc1ccc(/N=N/c2ccc([N+](=O)[O-])cc2)cc1 (repeat unit)
16,178.50 °C,*Oc1ccc(C(c2ccc(Oc3ccc(C(=O)c4ccccc4-c4ccccc4C(=O)c4ccc(*)cc4)cc3)cc2)(C(F)(F)F)C(F)(F)F)cc1 (repeat unit)
17,38.00 °C,*CC(F)(F)C(F)(F)COC(=O)NCC(F)(F)C(F)(F)C(F)(F)C(F)(F)CNC(=O)O* (repeat unit)
18,255.00 °C,*c1cccc(N2C(=O)c3ccc(Oc4ccc(Oc5ccc6c(c5)C(=O)N(*)C6=O)cc4)cc3C2=O)c1 (repeat unit)
19,89.00 °C,*Oc1ccc(Oc2cccc(*)n2)c(C)c1 (repeat unit)
20,185.00 °C,*C(=O)Nc1cc(NC(=O)c2cncc(*)c2)cc(-c2nnc(-c3ccccn3)o2)c1 (repeat unit)

# Reference: the PolyMetriX glass transition set
